US20220370486A1, “COMBINATION TREATMENT OF SYSTEMIC FUNGAL INFECTIONS” (The Board of Trustees of the University of Illinois, priority 2019, published 2022)
Converted amounts (≈) assume the structure as drawn. Like-named read-outs stand apart in the source and are kept apart here.

Assays:
[1] = system: human red blood cells; assay: Toxicity to human red blood cells; type: cell-based
Text: (§1) This key discovery opened a path to the rational development of a non-toxic AmB variant. To probe its predicted role in sterol binding, the hydroxyl group was synthetically deleted at the C2′ position on the mycosamine appendage.
In each case, C2′epiAmB is non-toxic to human red blood cells, primary hREC, mice, and rats up to the highest dose tested.

[2] = system: A. fumigatus AF293; assay: In vitro antifungal activity (Evotec); type: cell-based; details: strain AF293
Text: (§2) In vitro antifungal activity of C2′ epiAmB was compared with that of AmB against an extensive series of Candida and Aspergillus clinical isolates (FIG. 6A) at Evotec (Oxfordshire, UK). […] C2′epiAmB was also sent to the US national Fungus Testing Laboratory at UT-San Antonio for antifungal testing against an extended panel of especially challenging 40 Aspergillus clinical isolates, including azole-resistant A. fumigatus, A. flavus, and A. terreus (FIG. 6B).

[3] = system: A. fumigatus ATC204305; assay: In vitro antifungal activity (Evotec); type: cell-based; details: strain ATC204305
Text: as §2

[4] = system: A. fumigatus AF91; assay: In vitro antifungal activity (Evotec); type: cell-based; details: strain AF91
Text: as §2

[5] = system: A. fumigatus A1163; assay: In vitro antifungal activity (Evotec); type: cell-based; details: strain A1163
Text: as §2

[6] = UV-Vis and PCA based sterol sponge binding assay; details: apparent KD, sterol sponge aggregates in vitro
Text: However, an alternative method was developed for reproducible formation of homogenous AmB and C2′epiAmB sterol sponge aggregates in vitro. Using these preparations, a quantitative UV-Vis and Principle Component (PCA) based assay for determining the apparent Kis for the binding of AmB and C2′epiAmB to ergosterol and cholesterol (FIGS. 2A-2D) was developed.

[7] = system: Candida albicans SN250; assay: MIC against Candida albicans SN250; type: cell-based
[8] = Intravenous toxicity in mice; details: up to the highest dose tested
[9] = Isothermal titration calorimetry (ITC) sterol binding
Text: as §1
A practical 11-step synthesis of C2′epiAmB using a frontier site-selective acylation method was developed. Wilcock, B. C. et al., Nat Chem 2012, 4 (12), 996-1003; Uno, B. E. A synthesis enabled understanding of Amphotericin B leading to derivatives with improved therapeutic indices. University of Illinois at Urbana-Champaign, 2014. The sterol binding and cell killing activities was then determined.

[10] = system: C. albicans; assay: Murine model of invasive candidiasis; type: in vivo, mice
Description: Andes, D. et al., Antimicrobial agents and chemotherapy 2001, 45 (3), 922-6. In fact, the PD parameter that best correlates with outcome is Cmax-/MIC. The same was subsequently observed in a pulmonary model of invasive aspergillosis. Wiederhold, N. P. et al., Antimicrobial agents and chemotherapy 2006, 50 (2), 469-73.
A clinical isolate of C. albicans (SN250) was grown and quantified on SDA. For 24 h before infection, the organism was subcultured at 35° C. on SDA slants. A 106CFU/ml inoculum was prepared by placing six fungal colonies into 5 ml of sterile, depyrogenated normal (0.9%) saline warmed to 35° C. Six week-old ICR/Swiss specific-pathogen-free female mice were obtained from Harlan Sprague Dawley (Madison, Wis.). The mice were weighed (23-27 g) and disseminated candidiasis was induced via tail vein injection of 100 μl of inoculum. AmB and C2′ epiAmB were reconstituted in their deoxycholate form with 1.0 ml of saline5% dextrose. Each animal in the treatment group was given a single 200-μl intravenous (IV) injection of reconstituted AmB and C2′epiAmB 2 h after infection. Doses were calculated in terms of mg of compound per kg of body weight. At 24 h after infection, three animals per experimental condition were killed by CO2 asphyxiation. The kidneys from each animal were removed and homogenized. The homogenate was diluted serially tenfold with […] and plated on SDA. […]

[11] = system: clinically relevant invasive molds; assay: Activity against broader panel of invasive molds; type: cell-based; details: many strains, including pan-azole resistant strain F14196
Text: as §2

C[C@@H]1[C@H](O)[C@@H](C)/C=C/C=C/C=C/C=C/C=C/C=C/C=C/[C@H](OC2O[C@H](C)[C@@H](O)[C@H](N)[C@H]2O)CC2O[C@](O)(C[C@@H](O)C[C@@H](O)[C@H](O)CC[C@@H](O)C[C@@H](O)CC(=O)O[C@H]1C)C[C@H](O)[C@H]2C(=O)O (stereo partly drawn) [C2′epiAmB, C2′epi amphotericin B]
toxicity to human red blood cells [1]: non-toxic
less potent than AmB [2]: 4 fold
less potent than AmB [3]: 4 fold
less potent than AmB [4]: > 32 times
less potent than AmB [5]: 4 fold
Kd ([6]; read-out: KD,chol): > 2000 nM
Kd ([6]; read-out: KD,erg): 150 nM
MIC [7]: 0.5 µM (≈ 0.462 µg/mL)
toxicity in mice [8]: non-toxic
binding of ergosterol by ITC [9]: bind ergosterol
binding of cholesterol by ITC ([9]; within the detection limits of ITC): not (detectably) cholesterol
fungal burden ([10]; 16 mg/kg dose): outstanding reductions in fungal burden
efficacy ([10]; neutropenic ICR/Swiss mice, deoxycholate complex, single injection 1, 4, 8, or 16 mg/kg): dose-dependent efficacy
antifungal potency [11]: good antifungal potency
